Measured values: US4579861A, “Aryloxypropanolamine derivatives, pharmaceutical compositions and adrenegic thereof” (Pierrel S.p.A., priority 1983, dated 1986)
Structures can show the parent of a compound that is named as a salt. Where two headings read alike, the source gives them in different places.

Legend:
[1] = biological target: T1, β1 (guinea pig atria) (Cavia porcellus, UniProt H0W3H1); experiment: In vitro β-blocking activity, guinea pig atria stimulated with isopropylnoradrenaline (INA); assay type: cell-based, guinea pig (Hartley albino); conditions: INA 10^-8 M, 32° C.
T1 construct: The atria and the trachea have been suspended respectively in Ringer oxygenated solution; from tissue; host or cells: isolated atria of Hartley albino guinea pigs
Method: (§1) Hartley albino guinea pigs of 450 g average weight were used. The atria and the trachea have been suspended respectively in Ringer oxygenated solution at 32° C., and in Krebs carboxygenated solution medicated with pilocarpine, at 37° C.
(§2) After 30' minute stabilization the samples were stimulated with a single submaximal concentration of isopropylnoradrenaline (INA) (10^-8 M for the atria and 10^-7 M for the trachea) in the absence or presence of different antagonist's concentrations.
(§3) The percent inhibitions of the chronotropic and positive inotropic effect (atria) and of relaxation (trachea) were evaluated and the IC50 values were calculated therefrom.

[2] = system: β1; experiment: β-blocking activity on conscious rats, i.v. (inhibition of INA positive chronotropic effect); assay type: in vivo, rat (male Wistar); conditions: 2 rats each compound
Text: The arterial pressure (AP) and heart rate (HR) were graphically recorded on a type R. multichannel Beckman poligraph.

[3] = in vivo; conditions: mouse, iv
Method: Charles River male CD1 mice, weighing 25 g were used. The administration volume of the compounds, solubilized in H2 O and exceptionally in dimethylsulfoxide, was 0.02 ml/10 g of body weight.

[4] = biological target: β2 (guinea pig trachea) (Cavia porcellus, UniProt Q8K4Z4); experiment: cell-based; parameters: species or system guinea pig (Hartley albino)
Method: as §1, §2, §3

[5] = system: β2 receptors; experiment: Inhibition of 3H-DHA (dihydroalprenolol) binding to β2 receptors; conditions: for affinity for the β2 receptors compared with β1 receptors: 3H-DHA binding, in words; for IC50: read-out: IC50 β2 (inhibition of H^3-DHA binding), [3H]dihydroalprenolol binding, β2
[6] = system: β1 receptors; experiment: Inhibition of 3H-DHA (dihydroalprenolol) binding to β1 receptors; conditions: for cardioselectivity degree compared with reference compounds: 3H-DHA binding, in words; for IC50: read-out: IC50 β1 (inhibition of H^3-DHA binding), [3H]dihydroalprenolol binding, β1
[7] = β-Blocking activity in vitro IC50, Atria chronotropism × 10^-7, guinea pig atria, β1, chronotropic effect
[8] = β-Blocking activity in vitro IC50, Atria inotropism × 10^-7, guinea pig atria, β1, positive inotropic effect
[9] = guinea pig atria, β1, chronotropic effect, read-out: β-Blocking activity in vitro IC50, Atria chronotropism × 10^-7
[10] = guinea pig atria, β1, positive inotropic effect, read-out: β-Blocking activity in vitro IC50, Atria inotropism × 10^-7
[11] = 3 mg/kg i.v. (Ia-c), could be undervalued by reflex tachycardia
[12] = guinea pig trachea, β2, relaxation, INA 10^-7 M, 37° C., pilocarpine, read-out: β-Blocking activity in vitro IC50, Trachea β2 × 10^-7
[13] = read-out: β-Blocking activity in vitro IC50, Trachea β2 × 10^-7
[14] = 1 mg/kg i.v., could be undervalued by reflex tachycardia

Sequence of β2 (guinea pig trachea) (Q8K4Z4 whole entry): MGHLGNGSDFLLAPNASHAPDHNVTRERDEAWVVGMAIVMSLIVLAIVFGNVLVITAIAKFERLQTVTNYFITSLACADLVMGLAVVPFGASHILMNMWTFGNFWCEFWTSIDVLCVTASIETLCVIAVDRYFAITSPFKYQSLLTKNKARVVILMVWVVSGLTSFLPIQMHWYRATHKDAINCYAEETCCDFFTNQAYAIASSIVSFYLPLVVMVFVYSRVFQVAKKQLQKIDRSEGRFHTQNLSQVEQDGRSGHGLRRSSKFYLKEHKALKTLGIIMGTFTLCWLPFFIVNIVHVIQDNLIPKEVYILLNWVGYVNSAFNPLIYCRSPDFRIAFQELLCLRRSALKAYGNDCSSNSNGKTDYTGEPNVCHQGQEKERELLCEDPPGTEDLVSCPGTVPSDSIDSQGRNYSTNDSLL
T1 sequence (H0W3H1 1-470): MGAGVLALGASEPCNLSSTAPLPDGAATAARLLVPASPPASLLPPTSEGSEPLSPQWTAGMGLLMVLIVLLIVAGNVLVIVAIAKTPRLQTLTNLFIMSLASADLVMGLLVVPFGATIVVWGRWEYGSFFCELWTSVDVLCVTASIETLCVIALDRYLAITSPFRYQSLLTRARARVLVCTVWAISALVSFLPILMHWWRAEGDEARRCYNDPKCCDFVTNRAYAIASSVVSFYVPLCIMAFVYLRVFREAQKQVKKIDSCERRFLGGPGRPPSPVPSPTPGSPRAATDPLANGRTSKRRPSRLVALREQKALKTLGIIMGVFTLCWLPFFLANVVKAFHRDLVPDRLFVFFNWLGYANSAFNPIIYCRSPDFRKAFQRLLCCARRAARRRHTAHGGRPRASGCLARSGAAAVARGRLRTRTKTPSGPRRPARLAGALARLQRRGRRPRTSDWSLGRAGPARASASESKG

In the case of `CC(C)NCC(O)COc1ccc(CC(N)=O)cc1` (stereo not shown) [Atenolol, atenolol, reference compound], the IC50 [1, 7] is reported as 1500 nM and the IC50 [1, 8] is reported as 1700 nM.
In the case of `O=C1CN(c2ccccc2)C(=O)N1CCNCC(O)COc1ccccc1` (stereo not shown) [Ia, 1-Phenyl-3-{[2-(3-phenoxy-2-hydroxy)propylamino]ethyl}hydantoin hydrochloride], the IC50 [1, 9] is reported as 140 nM, the IC50 [1, 10] is reported as 430 nM and the “Vivo inhib. %, conscious rat i.v., chronotropism β1” value (from here on “Vivo inhib. %”) [2, 11] is reported as 59%. For the same compound, the LD50 at 168 h [3] was 96 mg/kg and the IC50 [4, 12] was 6700 nM.
With `Cc1cccc(OCC(O)CNCCN2C(=O)CN(c3ccccc3)C2=O)c1` (stereo not shown) [Ib] the IC50 [1, 9] was 430 nM, the IC50 [1, 10] was 940 nM and the “Vivo inhib. %” value [2, 11] was 50%. The LD50 at 168 h [3] was 69 mg/kg and the IC50 [4, 12] was 6200 nM.
Work on `N#Cc1ccccc1OC[C@H](O)CNCCN1C(=O)CN(c2ccccc2)C1=O` [Ic(R), (R)-(+)-1-Phenyl-3-{2-[3-(2-cyanophenoxy)-2-hydroxypropyl]aminoethyl}hydantoin hydrochloride] yielded an IC50 [1, 9] of 1400 nM, an IC50 [1, 10] of 3400 nM and an IC50 [4, 13] greater than 100000 nM.
In the case of `N#Cc1ccccc1OC[C@@H](O)CNCCN1C(=O)CN(c2ccccc2)C1=O` [Ic(S), (S)-(-)-1-Phenyl-3-{2-[3-(2-cyanophenoxy)-2-hydroxypropyl]aminoethyl}hydantoin hydrochloride], the IC50 [1, 9] is reported as 29 nM, the IC50 [1, 10] is reported as 60 nM and the IC50 [4, 13] is reported as 600 nM.
In the case of `N#Cc1ccccc1OCC(O)CNCCN1C(=O)CN(c2ccccc2)C1=O` (stereo not shown) [Ic], the “affinity for the β2 receptors compared with β1 receptors” value [5] is reported as “remarkably lower than the one shown for β1 receptors”, the IC50 [5] is reported as 9300 nM and the IC50 [1, 9] is reported as 120 nM. For the same compound, the IC50 [1, 10] was 90 nM, the “cardioselectivity degree compared with reference compounds” value [6] was “remarkably higher cardioselectivity degree than that of the reference compounds” and the IC50 [6] was 6.7 nM. For the same compound, the “Vivo inhib. %” value [2, 11] was 67%, the LD50 at 168 h [3] was 99 mg/kg and the IC50 [4, 12] was 2000 nM.
For `O=C1CN(c2ccc(Cl)cc2)C(=O)N1CCNCC(O)COc1ccccc1` (stereo not shown) [Id], the IC50 [1, 9] was 770 nM, the IC50 [1, 10] was 1200 nM and the “Vivo inhib. %” value [2, 14] was 18%. It also gave an LD50 at 168 h [3] of 45 mg/kg and an IC50 [4, 12] greater than 10000 nM.
For `Cc1cccc(OCC(O)CNCCN2C(=O)CN(c3ccc(Cl)cc3)C2=O)c1` (stereo not shown) [Ie], the IC50 [1, 9] was greater than 10000 nM, the IC50 [1, 10] was greater than 10000 nM and the “Vivo inhib. %” value [2, 14] was 19%. For the same compound, the LD50 at 168 h [3] was 25 mg/kg and the IC50 [4, 12] was greater than 10000 nM.
With `N#Cc1ccccc1OCC(O)CNCCN1C(=O)CN(c2ccc(Cl)cc2)C1=O` (stereo not shown) [If] the IC50 [1, 9] was 210 nM, the IC50 [1, 10] was 270 nM and the “Vivo inhib. %” value [2, 14] was 68%. The LD50 at 168 h [3] was 70 mg/kg and the IC50 [4, 12] was 6000 nM.
For `COc1ccc(N2CC(=O)N(CCNCC(O)COc3ccccc3)C2=O)cc1OC` (stereo not shown) [Ig], the IC50 [1, 9] was 230 nM, the IC50 [1, 10] was 210 nM and the “Vivo inhib. %” value [2, 14] was 53%. For the same compound, the LD50 at 168 h [3] was 126 mg/kg and the IC50 [4, 12] was 1500 nM.
With `COc1ccc(N2CC(=O)N(CCNCC(O)COc3cccc(C)c3)C2=O)cc1OC` (stereo not shown) [Ih] the IC50 [1, 9] was 460 nM, the IC50 [1, 10] was 890 nM and the “Vivo inhib. %” value [2, 14] was 58%. The LD50 at 168 h [3] was 111 mg/kg and the IC50 [4, 12] was 1100 nM.
In the case of `COc1ccc(N2CC(=O)N(CCNCC(O)COc3ccccc3C#N)C2=O)cc1OC` (stereo not shown) [Ii], the “affinity for the β2 receptors compared with β1 receptors” value [5] is reported as “remarkably lower than the one shown for β1 receptors”, the IC50 [5] is reported as 400 nM and the IC50 [1, 9] is reported as 82 nM. The IC50 [1, 10] was 190 nM, the “cardioselectivity degree compared with reference compounds” value [6] was “remarkably higher cardioselectivity degree than that of the reference compounds” and the IC50 [6] was 9.2 nM. For the same compound, the “Vivo inhib. %” value [2, 14] was 70%, the LD50 at 168 h [3] was 137 mg/kg and the IC50 [4, 12] was 430 nM.
Work on `COc1ccc(N2CC(=O)N(CCNCC(O)COc3ccccc3C#N)C2=O)cc1.Cl` (stereo not shown) [Il, 1-(4-Methoxyphenyl)-3-{2-[3-(2-cyanophenoxy)-2-hydroxypropyl]aminoethyl}hydantoin hydrochloride] yielded an IC50 [1, 9] of 45 nM, an IC50 [1, 10] of 96 nM and an LD50 at 168 h [3] of 135 mg/kg. It also gave an IC50 [4, 13] of 360 nM.
Work on `Cl.N#Cc1ccccc1OCC(O)CNCCN1C(=O)CN(c2ccc3c(c2)OCO3)C1=O` (stereo not shown) [Im, 1-(3,4-Methylendioxyphenyl)-3-{2-[3-(2-cyanophenoxy)-2-hydroxypropyl]aminoethyl}hydantoin hydrochloride] yielded an IC50 [1, 9] of 41 nM, an IC50 [1, 10] of 63 nM and an LD50 at 168 h [3] of 132 mg/kg. The IC50 [4, 13] was 780 nM.
For `COc1cccc(N2CC(=O)N(CCNCC(O)COc3ccccc3C#N)C2=O)c1` (stereo not shown) [In, 1-(3-Methoxyphenyl)-3-{2-[3-(2-cyanophenoxy)-2-hydroxypropyl]-aminoethyl}hydantoin hydrochloride], the IC50 [1, 9] was 76 nM, the IC50 [1, 10] was 130 nM and the LD50 at 168 h [3] was 120 mg/kg. It also gave an IC50 [4, 12] of 640 nM.
With `Cc1ccccc1OCC(O)CNCCN1C(=O)CN(c2ccccc2)C1=O` (stereo not shown) [Io] the IC50 [1, 9] was 115 nM, the IC50 [1, 10] was 150 nM and the LD50 at 168 h [3] was 60 mg/kg. For the same compound, the IC50 [4, 12] was 1600 nM.
`O=C1CN(c2ccccc2)C(=O)N1CCNCC(O)COc1ccccc1Cl` (stereo not shown) [Ip] gave an IC50 [1, 9] of 54 nM, an IC50 [1, 10] of 115 nM and an LD50 at 168 h [3] of 80 mg/kg. The IC50 [4, 12] was 600 nM.
For `CC(CCc1ccccc1)NCC(O)c1ccc(O)c(C(N)=O)c1` (stereo not shown) [Labetalol, labetalol, reference compound], the IC50 [1, 7] was 240 nM, the IC50 [1, 8] was 210 nM and the “Vivo inhib. %” value [2, 14] was 82%. For the same compound, the IC50 [4] was 1100 nM.
For `COCCc1ccc(OCC(O)CNC(C)C)cc1` (stereo not shown) [Metoprolol, metoprolol, reference compound], the “Vivo inhib. %” value [2, 14] was 60% and the LD50 at 168 h [3] was 103 mg/kg.
For `CC(C)NCC(O)COc1cccc2ccccc12` (stereo not shown) [Propranolol, propranolol, reference compound], the “Vivo inhib. %” value ([2]; 0.1 mg/kg i.v. (propranolol)) was 73%.
